Experimental data reported in ChEMBL document CHEMBL3397038, “A coumarin lignanoid from the stems of Kadsura heteroclita” (2015).
Active and inactive are the calls of the source. The calls are words filed in the database; no cut-off is given here.

What was measured:
[1] = system: Primary neuron; test: Neuroprotective activity against serum-deprivation-induced neurotoxicity in rat primary cerebellar granule neuronal cells assessed as cell viability at 10 uM by MTT assay relative to control; type: functional, cell-based
[2] = Antifibrotic activity in […] cells assessed as inhibition of acetaldehyde-stimulated cell growth at 50 uM/L; type: functional
[3] = system: Hepatitis B virus; test: Antiviral activity against hepatitis B viral in human HepG2(2.2.15) cells assessed as decrease in surface antigen HBsAg secretion at 25 ug/ml after 7 days; type: functional; details: HepG2 2.2.15, 168 h
[4] = system: Hepatitis B virus; test: Antiviral activity against hepatitis B viral in human HepG2(2.2.15) cells assessed as decrease in surface antigen HBeAg secretion at 25 ug/ml after 7 days; type: functional; details: HepG2 2.2.15, 168 h
[5] = system: PC-12; test: Neuroprotective activity against serum-deprivation-induced neurotoxicity in rat PC12 cells assessed as cell viability at 10 uM after 48 hrs by MTT assay relative to control; type: functional, cell-based

Row | Structure (SMILES) | Activity [1] | inhibition at 50 µM [2] | inhibition at 25 µg/mL [3] | inhibition at 25 µg/mL [4] | Activity [5]
1 | O=c1oc2cc3c(cc2cc1[C@@H](CO)Cc1ccc2c(c1)OCO2)OCO3 | Active | 71% | 57% | 48% | Active
2 | Nc1ccn([C@@H]2CS[C@H](CO)O2)c(=O)n1 [LAMIVUDINE] | – | – | 10% | 46% | –
